{"source": "BindingDB's records for PubMed 11196150", "about": "(Janssen Research Foundation, 2001)", "biological_target": "Protein farnesyltransferase subunit beta/geranylgeranyltransferase type-1 subunit alpha (Homo sapiens, UniProt P49354+P49356)", "assay": "FTase Scintillation Proximity Assay", "details": "pH 7.5; 22 °C", "method": "Compounds were tested as inhibitors of FTase in vitro using purified human enzyme to catalyze the reaction between [3H] FPP and a biotinylated peptide substrate. Reaction was terminated by addition of streptavidin scintillation proximity assay beads (Amersham), and the mixtures were subsequently analyzed by scintillation counting.", "note": "“And” between values parts separate entries of the source, which are not always exact repeats. Identical values can stand only once.", "data": [{"smiles": "Cn1cncc1[C@@](N)(c1ccc(Cl)cc1)c1ccc2c(c1)c(-c1cccc(Cl)c1)cc(=O)n2C", "note": "(racemic) [Racemic mixture]", "values": [{"measurement": "IC50", "result": "7.9 nM and 0.86 nM"}]}]}
